A short description of data set [1]: Metabolic stability in human liver microsomes (Biological Example 2). It is filed as in vitro ADME. Particulars: hepatic clearance (CLhep) scaled from human liver microsomes, 1 μM, well-stirred model. The protocol: Metabolic stability of select compounds was evaluated in human liver microsomes (from Corning or XenoTech, LLC) using a 96-well plate assay format. Compounds were incubated at 37° C. at 1 μM final concentration in the microsomal matrix (0.5 mg/mL total protein) in the presence or absence of NADPH cofactor. An NADPH regenerating system, comprised of NADP, MgCl2, isocitric acid, and isocitrate dehydrogenase, was used in the assay. Enzymatic reactions were conducted for 0, 5, 10, 20, 30, or 60 min before termination by addition of acetonitrile containing tolbutamide and labetalol internal standards (100 ng/mL). After shaking for 10 min, plates were subjected to centrifugation (4000 rpm at 4° C.) for 20 min and supernatants mixed 1:3 with HPLC grade water. Samples were analyzed by LC-MS/MS using appropriate MRM transitions for each analyte and internal standard (IS). Analyte/IS peak area ratios were used to determine percent compound remaining at each time point. Intrinsic clearance (Clint; expressed as mL·min^−1·mg^−1) was calculated from the first order elimination constant (k, min^−1) of test article decay and the volume of the incubation. These values were scaled to intrinsic organ clearance (Clint) using human specific scaling factors (48.8 mg microsomal protein per g liver; 25.7 g liver per kg body weight). Organ Clint was subsequently converted to hepatic clearance, HLM, (CLhep, mL·min-1·kg-1) using the well-stirred model of hepatic elimination, where Qh is human hepatic blood flow (20.7 mL·min-1·kg-1).
CLhep is the projected human clearance in the liver based on the above in vitro assay. A lower value is indicative of less compound being removed by the liver.
(In general: Liver microsomes are a subcellular fraction often used to study metabolism.)

Data set [2] addresses T1, FLAG-tagged human LRRK2 with G2019S mutation (Homo sapiens, UniProt Q5S007, G2019S).
T1 construct: expressed in transfected cells; host or cells: HEK293 / 293T cells, transient transfection with pCMV-FLAG-G2019S
The experiment in a line: Inhibition of pSer935 in HEK293 cells with expressed G2019S LRRK2 (Biological Example 4). It is filed as cell-based. To be noted: transfected 293T cells, 90 minutes compound treatment, MSD readout; read-out: HEK293T LRRK2 G2019S pS935. As to the method: In this assay, inhibition of phosphorylation of LRRK2 at residue serine 935 (pS935) by test compound was determined in HEK293 cells.
HEK293 cells were first transiently transfected with a plasmid harboring FLAG-tagged human LRRK2 cDNA with G2019S mutation (p.G2019S) under the control of CMV promoter for robust overexpression. The levels of phosphorylated Ser935 in G2019S expressing cells with or without compound treatment were measured by MSD using an anti-FLAG capture antibody and a phosho-specific anti-LRRK2 pS935 monoclonal detection antibody. The IC50 was determined by fitting a 10-point dose response data in duplicate with four parameter non-linear regression curve.
(Day 1) 293T cell seeding: 293T cells were seeded (1.4×10^6/well) into each well of a 6-well plate. After two days in culture, the cell number can grow into 5×10^6/well, so N+1 wells were seeded (enough for N 96 well assay plates).
(Day 2) 293T cell transfection: 5 μL of pCMV-FLAG-G2019S or pCMV-FLAG-WT LRRK2 (0.5 μg/μL) was added into 145 μL of DMEM medium, and mixed thoroughly by pipette up and down several times. 15 μL of SuperFect Transfection Reagent was added into samples, mixed thoroughly by pipetting up and down several times, and allowed to equilibrate at room temperature for 5-10 minutes. 0.5 mL of pre-warmed cell culture medium was added into samples, and mixed thoroughly by pipetting up and down several times. 650 μL of the mixture was added dropwise into each well of the 6 well plate, the plate was swirled to mix thoroughly, and incubated in a 37° C. incubator with a humidified atmosphere of 5% CO2 for 20-24 hours.
(Day 3) 293T cells seed into 96 well plates: Cells were harvested and resuspended in cell culture medium at 0.96×10^6 cells/mL density. 50 μL/well cells were plated onto 96-well cell culture plate (48,000 cells/well), and the plates were incubated in a 37° C. incubator with a humidified atmosphere of 5% CO2 for 20-24 hours.
(Day 4) Inhibitor Treatment and Cell Lysis: The compound destination plates were thawed at room temperature and centrifuged at 2000 rpm. 55 μL cell culture medium was added into compound destination plate, and the plate was warmed at 37° C.
50 μL of cell culture medium containing compounds was transferred into cell culture plate. Plates were incubated in a 37° C. incubator with a humidified atmosphere of 5% CO2 for 90 minutes, after which all of compound-containing medium was completely aspirated manually with 300 μL pipette. 100 μL/well of Lysis Buffer was added and the plates sealed, shaken at 4° C. for 30 minutes, and stored at −20° C. until usage.
(Day 5) MSD procedure: 2 μg/25 μL/well of FLAG antibody diluted in PBS was added into the MSD plate, incubated for two hours at room temperature or overnight at 4° C. (in Day 4). 50 μL (3.9 μg/μL) of FLAG antibody plus 2.5 mL PBS, per 96 well plate, or 50 μL (3.9 μg/μL) anti-FLAG antibody plus 5 mL PBS per 384 well plate. The plates were centrifuged at 1000 rpm for 10 seconds and shaken with a plate shaker for 10 seconds.
Anti-FLAG antibody was discarded, and the wells were washed using multidrop, low speed, two times with 300 μL/well of wash buffer for a 96 well plate or three times with 70 μL/well of wash buffer for a 384 well plate. 50 μL/well of block buffer for a 96 well plate, or 25 μL/well of block buffer for a 384 well plate, was added and the plates were incubated for two hours at room temperature. The Block buffer was then discarded and the wells washed two times using multidrop, low speed, with 300 μL/well of wash buffer for a 96 well plate, or three times with 70 μL/well of wash buffer for a 384 well plate.
25 μL of cell lysate was transferred into a 96 well MSD plate, or 12.5 μL of cell lysate into 384 well MSD plate, and the plates were incubated for one hour at room temperature.
Note: The cell lysate should be thawed one hour prior to this step, the plate centrifuged at 1000 rpm for one minute, shaken for 30 seconds, and then unsealed for lysate transfer. […]

In data set [3] the target is LRRK2 G2019S enzyme (Homo sapiens, UniProt Q5S007, G2019S). The experiment in a line: LRRK2 G2019S TR-FRET biochemical assay (Biological Example 1). To be noted: 134 μM ATP, 5 nM LRRK2, LRRKtide substrate. As to the method: • LRRK2 G2019S enzyme • Substrate (LRRKtide) • ATP • TR-FRET dilution buffer • pLRRKtide antibody • 384-well assay plate • DMSO Enzyme Reaction Conditions • 50 mM Tris pH 7.5, 10 mM MgCl2, 1 mM EGTA, 0.01% Brij-35, 2 mM DTT • 5 nM LRRK2 • 134 μM ATP • 60 minute reaction time • 23° C. reaction temperature • 10 μL total reaction volume Detection Reaction Conditions • 1×TR-FRET dilution buffer • 10 mM EDTA • 2 nM antibody • 23° C. reaction temperature • 10 μL total reaction volume
Compounds are prepared by initially diluting to 1 mM with DMSO. 35 μL of reference compound solution, 35 μL of test compound solution, and 35 μL HPE are successively added to the source plate (384-well assay plate, Labcyte). The plates are centrifuged at 2500 rpm for 1 minute and sealed in foil. POD is used to perform a 3.162 fold serial dilution and 100 nL of reference compound solution, test compound solution, HPE and ZPE are transferred to assay plates. The assay plate is centrifuged at 2500 rpm for 1 minute, and sealed with foil.
To perform the enzyme reaction, 5 μL of LRRKtide substrate and kinase mixture in assay buffer is added to all wells of the assay plate. The plate is centrifuged to concentrate the mixture at the bottom of the wells. The assay plate is incubated at 23° C. for 20 minutes. Following incubation, 5 μL of 2×ATP in assay buffer is added to each well, and plates are centrifuged to concentrate the mixture at the bottom of the wells. The plate is incubated at 23° C. for 60 minutes.
To perform the detection of the reaction, EDTA completely mixed in TR-FRET dilution buffer is added to antibody reagent. 10 μL of detection reagent is added to all wells of each well of the assay plate and the plate is centrifuged to concentrate the mixture at the bottom of the wells. The plate is then incubated at 23° C. for 60 minutes. Plates are read on Perkin Elmer Envision 2104 instrument in TR-FRET mode using a 340 nm excitation filter, 520 nm fluorescence emission filter, and 490 or 495 nm terbium emission filter.
On the technique in general: Time-resolved FRET reads energy transfer from a long-lived donor to a nearby acceptor.

SMILES strings stand for the structures. pIC50: −log10 of the molar value.

Experimental findings from patent publication US12358896B2, “LRRK2 inhibitors and methods of making and using thereof” (DENALI THERAPEUTICS INC., priority 2019, dated 2025) are described below.

T1 sequence (Q5S007 whole entry G2019S): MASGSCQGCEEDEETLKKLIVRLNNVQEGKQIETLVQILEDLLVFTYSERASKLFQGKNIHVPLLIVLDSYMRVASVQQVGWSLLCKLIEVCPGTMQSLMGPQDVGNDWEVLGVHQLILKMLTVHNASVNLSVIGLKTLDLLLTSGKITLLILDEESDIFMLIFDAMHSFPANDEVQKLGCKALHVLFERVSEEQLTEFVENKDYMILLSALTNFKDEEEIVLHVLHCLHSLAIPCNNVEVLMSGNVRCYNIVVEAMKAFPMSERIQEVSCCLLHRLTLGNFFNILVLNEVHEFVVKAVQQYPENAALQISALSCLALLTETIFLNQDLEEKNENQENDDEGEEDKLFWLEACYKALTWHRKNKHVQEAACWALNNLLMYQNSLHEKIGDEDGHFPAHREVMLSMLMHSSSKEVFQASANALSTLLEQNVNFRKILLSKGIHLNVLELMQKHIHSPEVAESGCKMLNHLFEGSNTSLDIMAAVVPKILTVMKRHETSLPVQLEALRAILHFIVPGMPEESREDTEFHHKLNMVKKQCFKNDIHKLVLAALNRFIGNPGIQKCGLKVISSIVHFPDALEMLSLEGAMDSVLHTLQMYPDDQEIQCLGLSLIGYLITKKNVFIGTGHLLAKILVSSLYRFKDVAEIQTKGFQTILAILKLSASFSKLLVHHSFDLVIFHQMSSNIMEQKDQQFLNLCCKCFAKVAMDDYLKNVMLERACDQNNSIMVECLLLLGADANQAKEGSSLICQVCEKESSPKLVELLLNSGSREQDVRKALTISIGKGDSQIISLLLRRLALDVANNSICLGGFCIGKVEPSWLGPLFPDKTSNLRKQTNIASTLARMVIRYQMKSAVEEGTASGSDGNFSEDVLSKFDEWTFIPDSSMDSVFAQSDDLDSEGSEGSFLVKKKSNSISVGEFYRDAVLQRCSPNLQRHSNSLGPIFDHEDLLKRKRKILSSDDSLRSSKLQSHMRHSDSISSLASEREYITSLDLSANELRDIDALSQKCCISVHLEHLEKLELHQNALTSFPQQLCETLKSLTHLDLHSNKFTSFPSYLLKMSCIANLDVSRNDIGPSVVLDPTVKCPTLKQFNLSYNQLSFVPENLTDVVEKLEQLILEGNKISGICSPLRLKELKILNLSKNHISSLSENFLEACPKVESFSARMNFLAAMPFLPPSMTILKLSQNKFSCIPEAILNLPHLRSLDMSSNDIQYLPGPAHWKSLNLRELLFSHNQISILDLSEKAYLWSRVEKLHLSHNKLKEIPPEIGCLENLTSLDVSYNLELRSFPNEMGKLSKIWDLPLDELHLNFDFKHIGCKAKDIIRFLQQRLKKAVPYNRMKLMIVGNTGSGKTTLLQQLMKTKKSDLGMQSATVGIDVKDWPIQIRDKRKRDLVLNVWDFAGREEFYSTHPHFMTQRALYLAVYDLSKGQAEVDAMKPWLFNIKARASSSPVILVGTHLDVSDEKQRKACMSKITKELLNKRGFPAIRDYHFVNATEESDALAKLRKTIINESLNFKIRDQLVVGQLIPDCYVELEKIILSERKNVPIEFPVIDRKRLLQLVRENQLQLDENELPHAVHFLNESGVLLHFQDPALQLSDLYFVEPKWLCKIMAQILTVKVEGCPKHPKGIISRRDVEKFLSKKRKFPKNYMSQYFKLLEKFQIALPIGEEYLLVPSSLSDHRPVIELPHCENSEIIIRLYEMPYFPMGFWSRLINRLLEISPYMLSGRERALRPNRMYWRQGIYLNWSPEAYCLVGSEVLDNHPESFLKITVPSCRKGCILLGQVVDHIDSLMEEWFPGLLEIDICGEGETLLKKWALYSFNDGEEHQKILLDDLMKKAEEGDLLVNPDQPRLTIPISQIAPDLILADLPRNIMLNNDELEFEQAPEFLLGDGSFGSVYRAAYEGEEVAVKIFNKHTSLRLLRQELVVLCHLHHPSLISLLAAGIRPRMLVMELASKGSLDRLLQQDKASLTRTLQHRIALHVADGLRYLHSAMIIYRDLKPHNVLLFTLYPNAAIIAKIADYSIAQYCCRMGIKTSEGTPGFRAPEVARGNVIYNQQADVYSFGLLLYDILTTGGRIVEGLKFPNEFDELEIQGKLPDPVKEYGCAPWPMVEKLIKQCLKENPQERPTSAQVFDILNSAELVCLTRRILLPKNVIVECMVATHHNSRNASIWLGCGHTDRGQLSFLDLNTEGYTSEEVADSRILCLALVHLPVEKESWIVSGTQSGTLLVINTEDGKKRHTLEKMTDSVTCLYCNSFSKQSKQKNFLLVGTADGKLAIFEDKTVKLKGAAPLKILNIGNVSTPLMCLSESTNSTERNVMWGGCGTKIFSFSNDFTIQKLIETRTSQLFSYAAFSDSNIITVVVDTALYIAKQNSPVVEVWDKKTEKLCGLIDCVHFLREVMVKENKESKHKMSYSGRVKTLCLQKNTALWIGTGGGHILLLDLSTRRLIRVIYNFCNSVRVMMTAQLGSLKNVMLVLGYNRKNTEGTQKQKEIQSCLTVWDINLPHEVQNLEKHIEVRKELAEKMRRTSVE
Sequence of LRRK2 G2019S enzyme (Q5S007 whole entry G2019S): as above

Regarding `Cc1nn(C2C[C@@]2(C)C(N)=O)cc1Nc1ncc(C(F)(F)F)c(NC2(C)CC2)n1` (single isomer, unassigned) [Example 1, (1,2-cis)-1-methyl-2-(3-methyl-4-((4-((1-methylcyclopropyl)amino)-5-(trifluoromethyl)pyrimidin-2-yl)amino)-1H-pyrazol-1-yl)cyclopropanecarboxamide], the “HLM Avg” value in data set [1] is on record as 6.4 mL/min/kg. For the same molecule, the pIC50 is 8.75 in data set [2] and 8.99 in data set [3].
For `CNc1nc(Nc2cn([C@@H]3C[C@@H]3C(N)=O)nc2C2CC2)ncc1C(F)(F)F` (single isomer, unassigned) [Example 2, (1,2-cis)-2-(3-cyclopropyl-4-((4-(methylamino)-5-(trifluoromethyl)pyrimidin-2-yl)amino)-1H-pyrazol-1-yl)cyclopropanecarboxamide], the pIC50 in data set [2] was 8.51; in data set [3] it was 8.55.
`CCNc1nc(Nc2cn(C3C[C@@]3(C)C(N)=O)nc2C)ncc1Br` (single isomer, unassigned) [Example 3, (1,2-cis)-2-(4-((5-bromo-4-(ethylamino)pyrimidin-2-yl)amino)-3-methyl-1H-pyrazol-1-yl)-1-methylcyclopropanecarboxamide]: the figures for the pIC50 in data set [2] and in data set [3] were 7.98 and 8.64, respectively.
On to `Cc1nn(C2C[C@]2(C)C(N)=O)cc1Nc1ncc(C(F)(F)F)c(NC2(C)CC2)n1` (single isomer, unassigned) [Example 4, (1,2-cis)-1-methyl-2-(3-methyl-4-((4-((1-methylcyclopropyl)amino)-5-(trifluoromethyl)pyrimidin-2-yl)amino)-1H-pyrazol-1-yl)cyclopropanecarboxamide], for which the “HLM Avg” value in data set [1] is 8.9 mL/min/kg. In addition, the pIC50 is 8.52 in data set [2] and 8.83 in data set [3].
On the same counts, the results for `CCNc1nc(Nc2cn([C@@H]3C[C@]3(C)C(N)=O)nc2C2CC2)ncc1C(F)(F)F` (single isomer, unassigned) [Example 5, (1,2-cis)-2-(3-cyclopropyl-4-((4-(ethylamino)-5-(trifluoromethyl)pyrimidin-2-yl)amino)-1H-pyrazol-1-yl)-1-methylcyclopropanecarboxamide] are 11 mL/min/kg, 8.29 and 9.04.
Take `Cc1nn(C2C[C@]2(C)C(N)=O)cc1Nc1ncc(C(F)(F)F)c(NC2CC2)n1` (single isomer, unassigned) [Example 6, (1,2-cis)-2-(4-((4-(cyclopropylamino)-5-(trifluoromethyl)pyrimidin-2-yl)amino)-3-methyl-1H-pyrazol-1-yl)-1-methylcyclopropanecarboxamide]: the pIC50 was 8.24 in data set [2] and 8.91 in data set [3].
The matching figures for `CCNc1nc(Nc2cn([C@@H]3C[C@@H]3C(N)=O)nc2C2CC2)ncc1C(F)(F)F` (single isomer, unassigned) [Example 8, (1,2-cis)-2-(3-cyclopropyl-4-((4-(ethylamino)-5-(trifluoromethyl)pyrimidin-2-yl)amino)-1H-pyrazol-1-yl)cyclopropanecarboxamide]: 8.31 and 8.95.
